Source: patent US20230107941A1, “HEPATITIS B CAPSID ASSEMBLY MODULATORS” (Venatorx Pharmaceuticals, Inc., priority 2019, published 2023)

Assays:
HBV = assay: In vitro antiviral assay: anti-HBV replication in HepAD38 cells (extracellular HBV DNA by QPCR); type: cell-based, hepatitis B virus (genotype D, serotype ayw); details: Hepatitis B virus, HePAD38, 168 h, 7 days incubation, extracellular HBV DNA by QPCR, read-out: Anti-HBV EC50
How it was run: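 Read-out is extracellular HBV DNA (copies/mL, QPCR standard curve) after 7-day exposure of tet-free HepAD38 cells to 10-fold dilutions from 1 μM down to 10 pM. Values normalised to DMSO vehicle; EC50 from 4-parameter nonlinear regression, with entecavir validating each run.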

[1] = In vitro cytotoxicity assay (MTT cell viability) in HepG2 cells; type: cell-based, human; details: human
How it was run: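 CC50 was derived by 4-parameter fit of viability relative to vehicle controls, measured as MTT formazan absorbance at 492 nm after 3–4 h of reagent and DMSO solubilization. Before that, HepG2 cells seeded overnight at 20,000/well were incubated 7 days at 37°C with compound from 30 μM down to 1.0 nM in half-log steps.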

Row | SMILES | EC50 (HBV) [µM] | CC50 at 7 days [1] [µM]
1 | Cc1csc(C2(NC(=O)c3c(C)c(C(=O)C(=O)NC(C)(C)C)n(C)c3C)CCCC2)n1 [Example 47, 5-(2-(tert-butylamino)-2-oxoacetyl)-1,2,4-trimethyl-N-(1-(4-methylthiazol-2-yl)cyclopentyl)-1H-pyrrole-3-carboxamide] | > 1 | > 30
2 | Cc1cc(NC(=O)c2c(C)c(C(=O)C(=O)N[C@H]3CC[C@@H](S(C)(=O)=O)CC3)n(C)c2-c2nccs2)ccc1F [Example 175, N-(4-fluoro-3-methylphenyl)-1,4-dimethyl-5-(2-(((1s,4s)-4-(methylsulfonyl)cyclohexyl)amino)-2-oxoacetyl)-2-(thiazol-2-yl)-1H-pyrrole-3-carboxamide] | > 1 | > 30
3 | Cc1cc(NC(=O)c2c(C)c(C(=O)C(=O)NCC(C)(C)O)n(C)c2-c2ccsc2)ccc1F [Example 185, N-(4-fluoro-3-methylphenyl)-5-(2-((2-hydroxy-2-methylpropyl)amino)-2-oxoacetyl)-1,4-dimethyl-2-(thiophen-3-yl)-1H-pyrrole-3-carboxamide] | 0.5 to 1 | 5 to 30
4 | CC(=O)N1CC[C@@H](NC(=O)C(=O)c2c(C)c(C(=O)Nc3ccc(F)c(C)c3)c(C)n2C)C(C)(C)C1 [Example 149, (R)-5-(2-((1-acetyl-3,3-dimethylpiperidin-4-yl)amino)-2-oxoacetyl)-N-(4-fluoro-3-methylphenyl)-1,2,4-trimethyl-1H-pyrrole-3-carboxamide] | < 0.05 | > 30
5 | Cc1cc(NC(=O)c2c(C)c(C(=O)C(=O)N[C@H]3CC[C@@H](S(C)(=O)=O)CC3)n(C)c2-c2cccnc2)ccc1F [Example 151, N-(4-fluoro-3-methylphenyl)-1,4-dimethyl-5-(2-(((1s,4s)-4-(methylsulfonyl)cyclohexyl)amino)-2-oxoacetyl)-2-(pyridin-3-yl)-1H-pyrrole-3-carboxamide] | > 1 | > 30
6 | CCC1(NC(=O)C(=O)c2c(C)c(C(=O)Nc3ccc(F)c(C)c3)c(C)n2C)CCN(c2nccs2)CC1 [Example 43, 5-(2-((4-ethyl-1-(thiazol-2-yl)piperidin-4-yl)amino)-2-oxoacetyl)-N-(4-fluoro-3-methylphenyl)-1,2,4-trimethyl-1H-pyrrole-3-carboxamide] | < 0.05 | 5 to 30
7 | Cc1c(C(=O)Nc2cc(F)c(F)c(F)c2)c(C)n(C)c1C(=O)C(=O)N[C@]1(C)CC[C@@H](O)CC1 [Example 25, 5-(2-(((1r,4r)-4-hydroxy-1-methylcyclohexyl)amino)-2-oxoacetyl)-1,2,4-trimethyl-N-(3,4,5-trifluorophenyl)-1H-pyrrole-3-carboxamide] | < 0.05 | > 30
8 | Cc1cc(NC(=O)c2c(C)c(C(=O)C(=O)NC3(C)CCN(C(=O)N4CCOCC4)CC3)n(C)c2C)ccc1F [Example 36, N-(4-fluoro-3-methylphenyl)-1,2,4-trimethyl-5-(2-((4-methyl-1-(morpholine-4-carbonyl)piperidin-4-yl)amino)-2-oxoacetyl)-1H-pyrrole-3-carboxamide] | < 0.05 | > 30
9 | Cc1c(C(=O)Nc2ccc(F)c(C(N)=O)c2)c(C)n(C)c1C(=O)C(=O)NC(C)(C)C [Example 57, 5-(2-(tert-butylamino)-2-oxoacetyl)-N-(3-carbamoyl-4-fluorophenyl)-1,2,4-trimethyl-1H-pyrrole-3-carboxamide] | > 1 | > 30
10 | Cc1c(C(=O)Nc2cc(Cl)cc(Cl)c2)c(C)n(C)c1C(=O)C(=O)N[C@H]1CC[C@@H](O)CC1 [Example 10, N-(3,5-dichlorophenyl)-5-(2-(((1s,4s)-4-hydroxycyclohexyl)amino)-2-oxoacetyl)-1,2,4-trimethyl-1H-pyrrole-3-carboxamide] | < 0.05 | 5 to 30
11 | CCc1c(C(=O)Nc2ccc(F)c(C)c2)c(C)c(C(=O)C(=O)N[C@H]2CC[C@@H](O)CC2)n1C [Example 108, 2-ethyl-N-(4-fluoro-3-methylphenyl)-5-(2-(((1s,4s)-4-hydroxycyclohexyl)amino)-2-oxoacetyl)-1,4-dimethyl-1H-pyrrole-3-carboxamide] | < 0.05 | 5 to 30
12 | Cc1c(C(=O)Nc2ccc(F)c(Br)c2)c(C)n(C)c1C(=O)C(=O)N[C@]1(C)CC[C@@H](O)CC1 [Example 18, N-(3-bromo-4-fluorophenyl)-5-(2-(((1r,4r)-4-hydroxy-1-methylcyclohexyl)amino)-2-oxoacetyl)-1,2,4-trimethyl-1H-pyrrole-3-carboxamide] | < 0.05 | > 30
13 | Cc1cc(NC(=O)c2c(C)c(C(=O)C(=O)N[C@@H]3CCN[C@H](C(=O)O)C3)n(C)c2C)ccc1F [Example 180, (2S,4R)-4-(2-(4-((4-fluoro-3-methylphenyl)carbamoyl)-1,3,5-trimethyl-1H-pyrrol-2-yl)-2-oxoacetamido)piperidine-2-carboxylic acid] | > 1 | > 30
14 | Cc1cc(NC(=O)c2c(C)c(C(=O)C(=O)N[C@H]3CC[C@@H](OCC(=O)NCCOCCOCCOCCOCCOCCOCCOCCNC(=O)CCCCC4SCC5NC(=O)NC54)CC3)n(C)c2C)ccc1F (some centres unmarked) [Example 121, 5-(2-(((1s,4s)-4-((2,28-dioxo-32-(2-oxohexahydro-1H-thieno[3,4-d]imidazol-4-yl)-6,9,12,15,18,21,24-heptaoxa-3,27-diazadotriacontyl)oxy)cyclohexyl)amino)-2-oxoacetyl)-N-(4-fluoro-3-methylphenyl)-1,2,4-trimethyl-1H-pyrrole-3-carboxamide] | > 1 | > 30
15 | Cc1cc(NC(=O)c2c(C)c(C(=O)C(=O)NC34CC(C3)C4)n(C)c2C)ccc1F [Example 80, 5-(2-(bicyclo[1.1.1]pentan-1-ylamino)-2-oxoacetyl)-N-(4-fluoro-3-methylphenyl)-1,2,4-trimethyl-1H-pyrrole-3-carboxamide] | < 0.05 | 5 to 30
16 | Cc1c(C(=O)Nc2ccc(F)c(C(=O)O)c2)c(C)n(C)c1C(=O)C(=O)NC(C)(C)C [Example 56, 5-(5-(2-(tert-butylamino)-2-oxoacetyl)-1,2,4-trimethyl-1H-pyrrole-3-carboxamido)-2-fluorobenzoic acid] | 0.5 to 1 | > 30
17 | Cc1cc(NC(=O)c2c(C)c(C(=O)C(=O)N[C@H]3CC[C@@H](S(C)(=O)=O)CC3)n(C)c2C2CC2)ccc1F [Example 129, 2-cyclopropyl-N-(4-fluoro-3-methylphenyl)-1,4-dimethyl-5-(2-(((1s,4s)-4-(methylsulfonyl)cyclohexyl)amino)-2-oxoacetyl)-1H-pyrrole-3-carboxamide] | < 0.05 | > 30
18 | Cc1c(C(=O)Nc2cccc(S(N)(=O)=O)c2)c(C)n(C)c1C(=O)C(=O)NC(C)(C)C [Example 65, 5-(2-(tert-butylamino)-2-oxoacetyl)-1,2,4-trimethyl-N-(3-sulfamoylphenyl)-1H-pyrrole-3-carboxamide] | > 1 | > 30
19 | CC[C@]1(NC(=O)C(=O)c2c(C)c(C(=O)Nc3ccc(F)c(C)c3)c(C)n2C)CC[C@@H](O)CC1 [Example 5, 5-(2-(((1s,4s)-1-ethyl-4-hydroxycyclohexyl)amino)-2-oxoacetyl)-N-(4-fluoro-3-methylphenyl)-1,2,4-trimethyl-1H-pyrrole-3-carboxamide] | < 0.05 | > 30
20 | Cc1c(C(=O)Nc2ccc(F)c(Br)c2)c(C)n(C)c1C(=O)C(=O)N[C@H]1CC[C@@H](O)CC1 [Example 19, N-(3-bromo-4-fluorophenyl)-5-(2-(((1s,4s)-4-hydroxycyclohexyl)amino)-2-oxoacetyl)-1,2,4-trimethyl-1H-pyrrole-3-carboxamide] | < 0.05 | > 30
21 | Cc1cc(NC(=O)c2c(C)c(C(=O)C(=O)N[C@H]3CC[C@@H](OCC(=O)O)CC3)n(C)c2C)ccc1F [Example 144, 2-(((1s,4s)-4-(2-(4-((4-fluoro-3-methylphenyl)carbamoyl)-1,3,5-trimethyl-1H-pyrrol-2-yl)-2-oxoacetamido)cyclohexyl)oxy) acetic acid] | 0.05 to 0.499 | > 30
22 | Cc1cc(NC(=O)c2c(C)c(C(=O)C(=O)N[C@]3(C)CC[C@@H](O)CC3)n(C)c2C)cc(C)c1F [Example 168, N-(4-fluoro-3,5-dimethylphenyl)-5-(2-(((1r,4r)-4-hydroxy-1-methylcyclohexyl)amino)-2-oxoacetyl)-1,2,4-trimethyl-1H-pyrrole-3-carboxamide] | < 0.05 | > 30
23 | Cc1cc(NC(=O)c2c(C)c(C(=O)C(=O)NC3CCCN(CC(=O)O)C3)n(C)c2C)ccc1F (centres unmarked) [Example 172, 2-(3-(2-(4-((4-fluoro-3-methylphenyl)carbamoyl)-1,3,5-trimethyl-1H-pyrrol-2-yl)-2-oxoacetamido)piperidin-1-yl)acetic acid] | > 1 | > 30
24 | Cc1cc(NC(=O)c2c(C)c(C(=O)C(=O)NC3C[C@H]4C[C@@H]3CC4O)n(C)c2C)ccc1F (stereo partly drawn) [Example 23, N-(4-fluoro-3-methylphenyl)-5-(2-(((1R,4R)-5-hydroxybicyclo[2.2.1]heptan-2-yl)amino)-2-oxoacetyl)-1,2,4-trimethyl-1H-pyrrole-3-carboxamide] | < 0.05 | > 30
25 | CCc1c(C(=O)Nc2ccc(F)c(C)c2)c(C)c(C(=O)C(=O)N[C@]2(C)C[C@H](O)C2)n1C [Example 104, 2-ethyl-N-(4-fluoro-3-methylphenyl)-5-(2-(((1s,3s)-3-hydroxy-1-methylcyclobutyl)amino)-2-oxoacetyl)-1,4-dimethyl-1H-pyrrole-3-carboxamide] | < 0.05 | > 30
